Source: patent US5164391A, “Hydantoin derivatives for treating complications of diabetes and circulatory diseases” (priority 1989, dated 1992)
Like-named read-outs stand apart in the source and are kept apart here.

Key:
thoracic aorta = assay: Action to the aorta of guinea pig (relaxation of contracted spiral samples); design: species or system Hartley guinea pigs; conditions: Cavia porcellus
Text: Hartley guinea pigs (body weight of 300-500 g) were rendered unconscious fainted by knocking their head and fixed upwardly. A thoracic aorta was taken out to prepare spiral samples, each having size of about 2×25 mm. The sample was suspended in a Magnus tube under a load of about 1 g and upper end of the sample was connected through a silk thread to a FD pick-up to record a change in isometric tension.
Composition of Krebs-Henseleit solution:
Prior to the experiment, the sample in the Magnus tube was left to stand, as it was, for 60 to 90 minutes and in such period of time, the Krebs-Henseleit solution was exchanged to fresh one at an interval of 20 to 30 minutes.
When the contraction of the sample became constant, the compound to be tested was gradually added in a amount starting at a concentration of 10^-8, to […] to observe the contraction of the sample. Finally, papaverine was added therein, so as to make its final concentration of 2×10^-5 g/ml, to check and record also the relaxing reaction or atony caused by the papaverine.

aldose reductase = aldose reductase (Rattus norvegicus, UniProt P07943); assay: Inhibition to aldose reductase (method of Kador et al); type: biochemical; conditions: read-out: IC50 (50% Inhibitory Concentration)
Text: An ability for reducing or inhibiting activity of aldose reductase was checked, in accordance with the method of Kador et al as described in "Biophys.

left atrium = assay: Action to heart of guinea pig: left atrium (contraction power); design: species or system Hartley guinea pigs
Procedure: (§1) Hartley guinea pigs (body weight of 300-400 g) were rendered unconscious by knocking their head and fixed upwardly to exenterate their heart. […] The vessel was previously filled with the Krebs-Henseleit solution and the said mixed gas was continuously fed therein.
(§2) Samples were prepared by separating from a ventricular muscle a right and left atrium, along an auricloventricular furrow or groove from the center-line of the right and left auricles.
The atrium was driven by contacting it with a platinum bipolar electrode attached to the cellfin and by stimulating the same with a rectangular pulse (1 Hz, 1 msec, 10 V). A movement of the sample was recorded by connecting the sample to a recorder through a silk thread and a FD pick-up.

platelet = assay: Inhibition of platelet agglutination (rat PRP); type: cell-based
Procedure: A blood was taken from a descending aorta of the rat anesthetized with ethyl ether. To the blood, 3.8% aqueous sodium citrate was added by a volume of 1/3 and the resulting solution was centrifuged (1500 rpm) at 4° C. for 10 minutes to obtain a supernatant which was designated as "PRP (platelet rich plasma)". The remaining residue was centrifuged (3000 rpm) at 4° C. for 10 minutes to obtain a supernatant which was designated as "PPP (platelet poor plasma)". A stirrer bar and PRP (267 μl) were inserted in a cell and PPP (more than 300 μl) was charged in another cell. A transmissivity to PRP and PPP was measured and set as "0%" for the former case and as "100%" for the latter case.
After a preincubation for 1 minute, a compound to be tested was added by 3 μl and then an agglutination causing substance (collagen or ADP) was added by 30 μl at a time lapsed of 1 minute from the addition of testing compound. For a control group, 3 μl of dimethylsulfoxide was added, instead of the testing compound. A maximum value in transmissivity change after the addition of agglutination causing substance was determined and made as a platelet agglutination rate (%).

right atrium = assay: Action to heart of guinea pig: right atrium (pulsations); design: species or system Hartley guinea pigs; conditions: for inhibition at 100 µM / inhibition at 10 µM: Cavia porcellus, read-out: Pulsation;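 on Pulsation: Dash means no recognizable influence on pulsation rate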
Procedure: as §1, §2
A contraction of the sample, due to a compound to be tested, was recorded through an FD pick-up. Concurrently, pulsations were input to a measuring unit to count and record number of the pulsations.

[1] = contraction by KCl 2.5×10^-2 M, 37° C., read-out: IC50 KCl contraction (50% relaxing)
[2] = contraction by norepinephrine 10^-6 g/ml, 37° C., read-out: IC50 N.E. contraction (50% relaxing)
[3] = 10^-5 (M), left atrium, 32°±1° C.
[4] = Cavia porcellus, 10^-4 (M), left atrium, 32°±1° C., read-out: Contraction
[5] = agglutination caused by collagen, read-out: IC50 Collagen
[6] = 10^-5 (M), right atrium, 32°±1° C.
[7] = 10^-4 (M), right atrium, 32°±1° C.
[8] = Cavia porcellus, read-out: Contraction
[9] = agglutination caused by ADP, N.D. : not detected, read-out: IC50 ADP

Compound	IC50 (thoracic aorta; [1]) [µM]	IC50 (thoracic aorta; [2]) [µM]	IC50 (aldose reductase) [µM]	Contraction (left atrium; [3])	inhibition at 100 µM (left atrium; [4]) [%]	IC50 (platelet; [5]) [µM]	Pulsation (right atrium; [6])	inhibition at 100 µM (right atrium; [7]) [%]	also measured
O=C1NC(=O)[C@@]2(C[C@@H](C(=O)NO)Oc3ccc(F)cc32)N1 [Example 7, (2S,4S)-6-Fluoro-2',5'-dioxospiro[chroman-4,4'-imidazolidine]-2-hydroxamic acid]	> 1000	> 1000	0.037						
O=C1NC(=O)[C@@]2(C[C@@H](C(=O)NNc3cccc4ccccc34)Oc3ccc(F)cc32)N1 [Example 6, (2S,4S)-6-Fluoro-2',5'-dioxospiro[chroman-4,4'-imidazolidine]-2-(N'-1-naphthyl)carbohydrazide]			0.013	-	10 to 20	230	-	10 to 20	
COc1cc(/C=C/C(=O)N2CCN(CC(=O)N3CCCC3)CC2)cc(OC)c1OC [Cinepazide, reference compound]									IC50 (thoracic aorta; read-out: IC50 KCl contraction (50% relaxing)): 2000 µM; IC50 (thoracic aorta; read-out: IC50 N.E. contraction (50% relaxing)): 1000 µM
CC(=O)Oc1ccccc1C(=O)O [Aspirin, reference compound]						210			
O=C1NC(=O)[C@@]2(C[C@@H](C(=O)NCCO[N+](=O)[O-])Oc3ccc(F)cc32)N1 [Example 13, (2S, 4S)-N-(2-Nitroxyethyl)-6-fluoro-2',5'-dioxospiro[chroman-4,4'-imidazolidine]-2-carboxamide]	60	20	0.19			240			
CC(C)NCC(O)COc1cccc2ccccc12 (stereo not drawn) [A, Propranolol, reference compound]									inhibition at 10 µM (left atrium; [8]): > 20%; inhibition at 100 µM (left atrium; [8]): > 20%; inhibition at 10 µM (right atrium): > 20%; inhibition at 100 µM (right atrium): > 20%
O=C1NC(=O)[C@@]2(C[C@@H](C(=O)NCCN3CCN(CC=Cc4ccccc4)CC3)Oc3ccc(F)cc32)N1 [Example 8, (2S,4S)-N-[2-(4-Cinnamylpiperazin-1-yl)ethyl]-6-fluoro-2',5'-dioxospiro[chroman-4,4'-imidazolidine]-2-carboxamide]	> 1000	> 1000	0.22	-	10 to 20	250	-	10 to 20	
O=C1NC(=O)[C@@]2(C[C@@H](C(=O)NNc3ccccc3)Oc3ccc(F)cc32)N1 [Example 3, (2S,4S)-6-Fluoro-2',5'-dioxospiro[chroman-4,4'-imidazolidine]-2-(N'-phenyl)carbohydrazide]	30	0.8	0.022	-	10 to 20	140	-		Pulsation (right atrium; [7]): -
O=C1NC(=O)[C@@]2(C[C@@H](C(=O)NNc3ccc(Cl)cc3)Oc3ccc(F)cc32)N1 [Example 4, (2S,4S)-6-Fluoro-2',5'-dioxospiro[chroman-4,4'-imidazolidine]-2-(N'-4-chlorophenyl)carbohydrazide]	> 1000	> 1000	0.026	-	10 to 20	180	-	10 to 20	
O=C1NC(=O)[C@@]2(C[C@@H](C(=O)NCCn3ccnc3)Oc3ccc(F)cc32)N1 [Example 14, (2S,4S)-N-{2-[(Imidazol-1-yl)ethyl]}-6-fluoro-2',5'-dioxospiro[chroman-4,4'-imidazolidine]-2-carboxamide]	> 1000	> 1000	0.65						
COc1ccc2c(c1)c(CC(=O)O)c(C)n2C(=O)c1ccc(Cl)cc1 [Indomethacin, reference compound]						68			
COc1ccccc1N1CCN(CCNC(=O)[C@@H]2C[C@]3(NC(=O)NC3=O)c3cc(F)ccc3O2)CC1 [Example 9, (2S,4S)-N-{2-[4-(2-Methoxyphenyl)piperazin-1-yl]ethyl}-6-fluoro-2',5'-dioxospiro[chroman-4,4'-imidazolidine]-2-carboxamide]	> 1000	> 1000	0.24	-	10 to 20	660	-		Pulsation (right atrium; [7]): -
CNNC(=O)[C@@H]1C[C@]2(NC(=O)NC2=O)c2cc(F)ccc2O1 [Example 2, (2S,4S)-6-Fluoro-2',5'-dioxospiro[chroman-4,4'-imidazolidine]-2-(N'-methyl)carbohydrazide]	> 1000	> 1000	0.3						
O=C1NC(=O)[C@@]2(C[C@@H](C(=O)NCCN3CCC(Cc4ccccc4)CC3)Oc3ccc(F)cc32)N1 [Example 11, (2S,4S)-N-[2-(4-Benzylpiperidin-1-yl)ethyl]-6-fluoro-2'5'-dioxospiro[chroman-4,4'-imidazolidine]-2-carboxamide]	1.9	0.1	1.9	-	10 to 20	83		> 20	IC50 (platelet; [9]): 370 µM; inhibition at 10 µM (right atrium; [6]): 10 to 20%
O=C1NC(=O)[C@@]2(C[C@@H](C(=O)NCCN3CCN(C(c4ccccc4)c4ccccc4)CC3)Oc3ccc(F)cc32)N1 [Example 10, (2S,4S)-N-{2-[4-(Diphenylmethyl)piperazin-1-yl]ethyl}-6-fluoro-2',5'-dioxospiro[chroman-4,4'-imidazolidine]-2-carboxamide]	1.8	100	0.15	-		410		> 20	Contraction (left atrium; 10^-4 (M), left atrium, 32°±1° C.): -; IC50 (platelet; [9]): 700 µM; inhibition at 10 µM (right atrium; [6]): 10 to 20%
CC(C(O)c1ccc(O)cc1)N1CCC(Cc2ccccc2)CC1 (stereo not drawn) [B, Ifenprodil, reference compound]				-	10 to 20			> 20	inhibition at 10 µM (right atrium; [6]): > 20%
COc1cc(C=CC(=O)N2CCN(CCNC(=O)[C@@H]3C[C@]4(NC(=O)NC4=O)c4cc(F)ccc4O3)CC2)cc(OC)c1OC [Example 12, (2S,4S)-N-{2-[4-(3,4,5-Trimethoxycinnamoyl)piperazin-1-yl]ethyl}-6-fluoro-2',5'-dioxospiro[chroman-4,4'-imidazolidine]-2-carboxamide]	160	30	0.15	-	10 to 20		-		Pulsation (right atrium; [7]): -
NNC(=O)[C@@H]1C[C@]2(NC(=O)NC2=O)c2cc(F)ccc2O1 [Example 1, (2S,4S)-6-Fluoro-2',5'-dioxospiro[chroman-4,4'-imidazolidine]-2-carbohydrazide]	95	2	0.038						
COc1ccc(NNC(=O)[C@@H]2C[C@]3(NC(=O)NC3=O)c3cc(F)ccc3O2)cc1 [Example 5, (2S,4S)-6-Fluoro-2',5'-dioxospiro[chroman-4,4'-imidazolidine]-2-(N'-4-methoxyphenyl)carbohydrazide]	5	30	0.044	-	10 to 20	26	-		Pulsation (right atrium; [7]): -
